# Tested on: patients with recurrent or refractory AML
# Assay: AML dose-escalation study: safety and tolerability (AEs, DLTs)
# Assay type: in vivo, human
# Source text: Conducted at three centres in the USA and one in Canada. Dose escalation followed a conventional 3 + 3 design. […] In the first cohort, dosing between the first and subsequent patients was staggered with a 7-day interval. Dose-escalation decisions were based on the safety and tolerability data from ≥3 evaluable patients (or six if one of the first three patients experienced a dose-limiting toxicity [DLT]).
# AZD1208 could be escalated by up to 100% in subsequent cohorts until one DLT was observed, after which succeeding doses were escalated by up to 50%.
# In the case of a DLT, the cohort was expanded to six patients. If a DLT occurred in ≥2 patients within a cohort, the dose was determined to be a non-tolerated dose (NTD) and dose escalation was stopped.
# Grade 3 or 4 toxicities not attributable to the disease or disease-related processes under investigation, and occurring before the end of Cycle 1, were considered DLTs.
# The NTD was identified as the dose at which ≥2 DLTs occurred in a given cohort.
structure (smiles),measurement,setting,value
N[C@@H]1CCCN(c2c(/C=C3\SC(=O)NC3=O)cccc2-c2ccccc2)C1 [AZD1208],Abdominal pain (all-grade AE),"120 mg, n = 4",1 (25.0) n (%)
same,Asthenia (all-grade AE),"120 mg, n = 4",1 (25.0) n (%)
same,Chills (all-grade AE),"120 mg, n = 4",0 n (%)
same,Cough (all-grade AE),"120 mg, n = 4",0 n (%)
same,Decreased appetite (all-grade AE),"120 mg, n = 4",0 n (%)
same,Dehydration (all-grade AE),"120 mg, n = 4",0 n (%)
same,Diarrhoea (all-grade AE),"120 mg, n = 4",1 (25.0) n (%)
same,Dyspnoea (all-grade AE),"120 mg, n = 4",0 n (%)
same,Fatigue (all-grade AE),"120 mg, n = 4",1 (25.0) n (%)
same,Febrile neutropenia (all-grade AE),"120 mg, n = 4",3 (75.0) n (%)
same,Headache (all-grade AE),"120 mg, n = 4",0 n (%)
same,Hyperglycaemia (all-grade AE),"120 mg, n = 4",0 n (%)
same,Hypocalcaemia (all-grade AE),"120 mg, n = 4",1 (25.0) n (%)
same,Hypokalaemia (all-grade AE),"120 mg, n = 4",0 n (%)
same,Hypomagnesaemia (all-grade AE),"120 mg, n = 4",1 (25.0) n (%)
same,Hypophosphataemia (all-grade AE),"120 mg, n = 4",1 (25.0) n (%)
same,Hypotension (all-grade AE),"120 mg, n = 4",1 (25.0) n (%)
same,Maculopapular rash (all-grade AE),"120 mg, n = 4",0 n (%)
same,Nausea (all-grade AE),"120 mg, n = 4",3 (75.0) n (%)
same,Oedema peripheral (all-grade AE),"120 mg, n = 4",1 (25.0) n (%)
same,Patients with any AE (all-grade AE),"120 mg, n = 4",3 (75.0) n (%)
same,Pneumonia (all-grade AE),"120 mg, n = 4",1 (25.0) n (%)
same,Pyrexia (all-grade AE),"120 mg, n = 4",0 n (%)
same,Rash (all-grade AE),"120 mg, n = 4",0 n (%)
same,Renal failure acute (all-grade AE),"120 mg, n = 4",0 n (%)
same,Stomatitis (all-grade AE),"120 mg, n = 4",1 (25.0) n (%)
same,Vision blurred (all-grade AE),"120 mg, n = 4",1 (25.0) n (%)
same,Vomiting (all-grade AE),"120 mg, n = 4",2 (50.0) n (%)
same,Patients in whom AZD1208 was discontinued as a result of SAEs and AEs,"240 mg (bacteremia, peristomal ulcer)",1 n
same,Abdominal pain (all-grade AE),"240 mg, n = 6",0 n (%)
same,Asthenia (all-grade AE),"240 mg, n = 6",0 n (%)
same,Chills (all-grade AE),"240 mg, n = 6",1 (16.7) n (%)
same,Cough (all-grade AE),"240 mg, n = 6",1 (16.7) n (%)
same,"DLT detail, action taken","240 mg, n = 6","Peristomal ulcer, drug permanently discontinued"
same,Decreased appetite (all-grade AE),"240 mg, n = 6",1 (16.7) n (%)
same,Dehydration (all-grade AE),"240 mg, n = 6",0 n (%)
same,Diarrhoea (all-grade AE),"240 mg, n = 6",1 (16.7) n (%)
same,Dyspnoea (all-grade AE),"240 mg, n = 6",1 (16.7) n (%)
same,Fatigue (all-grade AE),"240 mg, n = 6",1 (16.7) n (%)
same,Febrile neutropenia (all-grade AE),"240 mg, n = 6",2 (33.3) n (%)
same,Headache (all-grade AE),"240 mg, n = 6",0 n (%)
same,Hyperglycaemia (all-grade AE),"240 mg, n = 6",0 n (%)
same,Hypocalcaemia (all-grade AE),"240 mg, n = 6",1 (16.7) n (%)
same,Hypokalaemia (all-grade AE),"240 mg, n = 6",0 n (%)
same,Hypomagnesaemia (all-grade AE),"240 mg, n = 6",1 (16.7) n (%)
same,Hypophosphataemia (all-grade AE),"240 mg, n = 6",0 n (%)
same,Hypotension (all-grade AE),"240 mg, n = 6",2 (33.3) n (%)
same,Maculopapular rash (all-grade AE),"240 mg, n = 6",1 (16.7) n (%)
same,Nausea (all-grade AE),"240 mg, n = 6",4 (66.7) n (%)
same,Oedema peripheral (all-grade AE),"240 mg, n = 6",1 (16.7) n (%)
same,Patients with any AE (all-grade AE),"240 mg, n = 6",6 (100.0) n (%)
same,Pneumonia (all-grade AE),"240 mg, n = 6",3 (50.0) n (%)
same,Pyrexia (all-grade AE),"240 mg, n = 6",0 n (%)
same,Rash (all-grade AE),"240 mg, n = 6",0 n (%)
same,Renal failure acute (all-grade AE),"240 mg, n = 6",1 (16.7) n (%)
same,Stomatitis (all-grade AE),"240 mg, n = 6",1 (16.7) n (%)
same,Vision blurred (all-grade AE),"240 mg, n = 6",0 n (%)
same,Vomiting (all-grade AE),"240 mg, n = 6",3 (50.0) n (%)
same,Patients in whom AZD1208 was discontinued as a result of SAEs and AEs,"480 mg (vomiting, gingival pain)",2 n
same,Abdominal pain (all-grade AE),"480 mg, n = 6",1 (16.7) n (%)
same,Asthenia (all-grade AE),"480 mg, n = 6",1 (16.7) n (%)
same,Chills (all-grade AE),"480 mg, n = 6",0 n (%)
same,Cough (all-grade AE),"480 mg, n = 6",1 (16.7) n (%)
same,"DLT detail, action taken","480 mg, n = 6","Fatigue, drug interrupted"
same,Decreased appetite (all-grade AE),"480 mg, n = 6",0 n (%)
same,Dehydration (all-grade AE),"480 mg, n = 6",0 n (%)
same,Diarrhoea (all-grade AE),"480 mg, n = 6",3 (50.0) n (%)
same,Dyspnoea (all-grade AE),"480 mg, n = 6",2 (33.3) n (%)
same,Fatigue (all-grade AE),"480 mg, n = 6",4 (66.7) n (%)
same,Febrile neutropenia (all-grade AE),"480 mg, n = 6",0 n (%)
same,Headache (all-grade AE),"480 mg, n = 6",3 (50.0) n (%)
same,Hyperglycaemia (all-grade AE),"480 mg, n = 6",2 (33.3) n (%)
same,Hypocalcaemia (all-grade AE),"480 mg, n = 6",1 (16.7) n (%)
same,Hypokalaemia (all-grade AE),"480 mg, n = 6",3 (50.0) n (%)
same,Hypomagnesaemia (all-grade AE),"480 mg, n = 6",2 (33.3) n (%)
same,Hypophosphataemia (all-grade AE),"480 mg, n = 6",2 (33.3) n (%)
same,Hypotension (all-grade AE),"480 mg, n = 6",2 (33.3) n (%)
same,Maculopapular rash (all-grade AE),"480 mg, n = 6",0 n (%)
same,Nausea (all-grade AE),"480 mg, n = 6",1 (16.7) n (%)
same,Oedema peripheral (all-grade AE),"480 mg, n = 6",3 (50.0) n (%)
same,Patients with any AE (all-grade AE),"480 mg, n = 6",6 (100.0) n (%)
same,Pneumonia (all-grade AE),"480 mg, n = 6",2 (33.3) n (%)
same,Pyrexia (all-grade AE),"480 mg, n = 6",1 (16.7) n (%)
same,Rash (all-grade AE),"480 mg, n = 6",1 (16.7) n (%)
same,Renal failure acute (all-grade AE),"480 mg, n = 6",2 (33.3) n (%)
same,Stomatitis (all-grade AE),"480 mg, n = 6",3 (50.0) n (%)
same,Vision blurred (all-grade AE),"480 mg, n = 6",3 (50.0) n (%)
same,Vomiting (all-grade AE),"480 mg, n = 6",2 (33.3) n (%)
same,Patients in whom AZD1208 was discontinued as a result of SAEs and AEs,"700 mg (lung infection, GBS, Escherichia spp. sepsis)",3 n
same,Abdominal pain (all-grade AE),"700 mg, n = 7",3 (42.9) n (%)
same,Asthenia (all-grade AE),"700 mg, n = 7",1 (14.3) n (%)
same,Chills (all-grade AE),"700 mg, n = 7",1 (14.3) n (%)
same,Cough (all-grade AE),"700 mg, n = 7",4 (57.1) n (%)
same,"DLT detail, action taken","700 mg, n = 7","GBS, drug permanently discontinued"
same,Decreased appetite (all-grade AE),"700 mg, n = 7",2 (28.6) n (%)
same,Dehydration (all-grade AE),"700 mg, n = 7",0 n (%)
same,Diarrhoea (all-grade AE),"700 mg, n = 7",5 (71.4) n (%)
same,Dyspnoea (all-grade AE),"700 mg, n = 7",2 (28.6) n (%)
same,Fatigue (all-grade AE),"700 mg, n = 7",2 (28.6) n (%)
same,Febrile neutropenia (all-grade AE),"700 mg, n = 7",1 (14.3) n (%)
same,Headache (all-grade AE),"700 mg, n = 7",1 (14.3) n (%)

# Reference: PMC5988656, “Phase I studies of AZD1208, a proviral integration Moloney virus kinase inhibitor in solid and haematological cancers” (British Journal of Cancer, 2018)
